Assay results taken from patent US7705188B2 (Arizona Board of Regents, a body corporate of the State of …, priority 2002, dated 2010).
In brackets after ≈: the same amount, converted by molar mass. Read-outs that look alike come from different tables or passages of the source.

Tests used:
BXPC-3 = assay: Cytotoxicity, pancreas-a BXPC-3; type: cell-based, human; details: for GI50: Homo sapiens, BXPC-3, BXPC-3
MCF-7 = assay: Cytotoxicity, breast MCF-7; type: cell-based, human; details: for GI50: Homo sapiens, MCF7
SF-268 = assay: Cytotoxicity, CNS SF-268; type: cell-based, human; details: for GI50: Homo sapiens
NCI-H460 = assay: Cytotoxicity, lung-NSC NCI-H460; type: cell-based, human; details: for GI50: Homo sapiens
KM201.2 = assay: Cytotoxicity, colon KM201.2; type: cell-based, human; details: for GI50: Homo sapiens
DU-145 = assay: Cytotoxicity, prostate DU-145; type: cell-based, human; details: for GI50: Homo sapiens, DU-145, DU-145
[1] = test system: P-388 and human tumor cell lines; assay: Cytotoxicity, summary over P-388 and human tumor cell lines; type: cell-based
tubulin [2] = assay: Inhibition of tubulin polymerization; type: biochemical; details: tubulin 10 μM; extent of assembly after 20 min at 30° C.; read-out: Inhibition of tubulin Polymerization IC50 (μM) ± SD
Experimental: (§1) Extent of assembly after 20 min at 30° C. was the parameter measured. The colchicine binding assay was performed as earlier reported.^27 The tubulin concentration was 1.0 μM, the [3H] colchicine concentration was 5.0 μM, and the potential inhibitor concentrations were as indicated. Binding of colchicine was measured following a 10 min incubation at 37° C.

tubulin [3] = assay: Inhibition of [3H]colchicine binding to tubulin
Experimental: as §1

Candida albicans = assay: Antimicrobial broth microdilution, MIC; type: cell-based; details: read-out: Minimum inhibitory concentration
From the text: (§2) Stilbene production has been correlated with the resistance of grape leaves to fungal infection.

Enterobacter cloacae = assay: Antimicrobial broth microdilution, MIC; type: cell-based; details: read-out: Minimum inhibitory concentration
From the text: as §2

Enterococcus faecalis = assay: Antimicrobial broth microdilution, MIC; type: cell-based; details: read-out: Minimum inhibitory concentration
From the text: as §2

Escherichla coli = assay: Antimicrobial broth microdilution, MIC; type: cell-based; details: Escherichla coli; read-out: Minimum inhibitory concentration
From the text: as §2

Micrococcus luteus = assay: Antimicrobial broth microdilution, MIC; type: cell-based; details: read-out: Minimum inhibitory concentration
From the text: as §2

Staphylococcus aureus = assay: Antimicrobial broth microdilution, MIC; type: cell-based; details: read-out: Minimum inhibitory concentration
From the text: as §2

[4] = test system: Stenotrophomonas maltophilia; assay: Antimicrobial broth microdilution, MIC; type: cell-based; details: read-out: Minimum inhibitory concentration
From the text: as §2

Streptococcus pneumoniae = assay: Antimicrobial broth microdilution, MIC; type: cell-based; details: read-out: Minimum inhibitory concentration
From the text: as §2

Cryptococcus neoformans = assay: Antimicrobial broth microdilution, MIC; type: cell-based; details: read-out: Minimum inhibitory concentration
From the text: as §2

Neisseria gonorrhoeae = assay: Antimicrobial broth microdilution, MIC; type: cell-based; details: Neisseria gonorrhoeae; read-out: Minimum inhibitory concentration
From the text: as §2

[5] = SF-268, SF-268, read-out: CNS SF-268 GI50
[6] = NCI-H460, NCI-H460, read-out: Lung-NSC NCI-H460 GI50
[7] = KM201.2, read-out: Colon KM201.2 GI50
[8] = NCI-H460, read-out: Lung-NSC NCI-H460 GI50, NCI-H460

Q: With `Oc1ccc(/C=C\c2cc(O)cc(O)c2)cc1` [Compound 1b, cis-Resveratrol] as the compound, how does the GI50 (BXPC-3) read?
A: The GI50 was 15.5 µg/mL (≈ 67.9 µM).

Q: And the GI50 (MCF-7)?
A: Its GI50 is 14.8 µg/mL (≈ 64.8 µM).

Q: What about the GI50 (SF-268; [5]) of the same compound?
A: The GI50 was 5 µg/mL (≈ 21.9 µM).

Q: And the GI50 (NCI-H460; [6])?
A: Its GI50 is 13.2 µg/mL (≈ 57.8 µM).

Q: What about the GI50 (KM201.2; [7]) of the same compound?
A: The GI50 was 22 µg/mL (≈ 96.4 µM).

Q: And the GI50 (DU-145)?
A: The GI50 was 10.2 µg/mL (≈ 44.7 µM).

Q: And the “Cytotoxicity against cancer cell lines, comparison in words” value (“Cytotoxicity against cancer cell lines” for short) [1]?
A: Its value is “slightly less inhibitory effects on the cancer cell lines tested than did the trans-isomer”.

Q: With `COc1ccc(C(=O)c2cc(OC)c(OC)c(OC)c2)cc1O` [Compound 2c, phenstatin, reference compound] as the compound, how does the GI50 (SF-268; SF-268, read-out: CNS SF-268 GI50, SF-268) read?
A: Its GI50 is 0.052 µg/mL (≈ 0.163 µM).

Q: And the GI50 (NCI-H460; [8])?
A: Its GI50 is 0.0057 µg/mL (≈ 0.0179 µM).

Q: And the GI50 (KM201.2; read-out: Colon KM201.2 GI50, KM201.2)?
A: Its GI50 is 0.04 µg/mL (≈ 0.126 µM).

Q: And the IC50 (tubulin [2])?
A: The IC50 was 1.1 ± 0.1 µM.

Q: And the “Inhibition of colchicine binding, in words” value (tubulin [3])?
A: The value was “less potent than combretastatin A-4 (2a)”.

Q: And the “Inhibition of colchicine binding % Inhibition, 2 μM inhibitor” value (tubulin [3]; 2 μM inhibitor, tubulin 1.0 μM, [3H]colchicine 5.0 μM, 10 min at 37° C.)?
A: Its value is 73 ± 1%.

Q: And the “Inhibition of colchicine binding % Inhibition, 5 μM inhibitor” value (tubulin [3]; 5 μM inhibitor, tubulin 1.0 μM, [3H]colchicine 5.0 μM, 10 min at 37° C.)?
A: The value was 85 ± 2%.

Q: What does the source list for `COc1ccc(C=Cc2cc(OC)cc(OC)c2)cc1` [Compound 4b, 3,4′,5-trimethoxystilbene]?
A: Pancreas-a BXPC-3 GI50 (BXPC-3): 0.35 µg/mL; CNS SF-268 GI50 (SF-268): 0.56 µg/mL; Lung-NSC NCI-H460 GI50 (NCI-H460): 0.62 µg/mL; Prostate DU-145 GI50 (DU-145): 1.5 µg/mL; Cytotoxicity against cancer cell lines, comparison in words [1]: superior in activity to resveratrol (1)

Q: How did the GI50 (BXPC-3) turn out when `COc1cc(/C=C/c2ccc(O)cc2)cc(OC)c1` [Compound 14d, (E)-3,5-dimethoxy-4′-hydroxy-stilbene] was run?
A: Its GI50 is 6.5 µg/mL (≈ 25.4 µM).

Q: What about the GI50 (MCF-7) of the same compound?
A: The GI50 was 2.3 µg/mL (≈ 8.97 µM).

Q: What about the GI50 (SF-268; [5]) of the same compound?
A: Its GI50 is 4.3 µg/mL (≈ 16.8 µM).

Q: What about the GI50 (NCI-H460; [6]) of the same compound?
A: Its GI50 is 2.7 µg/mL (≈ 10.5 µM).

Q: What about the GI50 (KM201.2; [7]) of the same compound?
A: Its GI50 is 3.4 µg/mL (≈ 13.3 µM).

Q: What about the GI50 (DU-145) of the same compound?
A: The GI50 was 2.7 µg/mL (≈ 10.5 µM).

Q: What about the “Cytotoxicity against cancer cell lines” value [1] of the same compound?
A: The value was “slightly less active than their cis counterparts”.

Q: For `COc1ccc(C=Cc2cc(O)cc(OC)c2)cc1` [Compound 14g, 3-hydroxy-4′,5-dimethoxystilbene], which “Cytotoxicity against cancer cell lines” value [1] is on record?
A: Its value is “comparable to that of resveratrol”.

Q: How did the MIC (Candida albicans) turn out when `COc1ccc(C=Cc2cc(O)cc(OC)c2)cc1` [Compound 14h, 3-hydroxy-4′,5-dimethoxystilbene] was run?
A: Its MIC is > 64 µg/mL.

Q: What about the MIC (Enterobacter cloacae) of the same compound?
A: The MIC was > 64 µg/mL.

Q: And the MIC (Enterococcus faecalis; first line (r12))?
A: The MIC was > 64 µg/mL.

Q: And the MIC (Enterococcus faecalis; second line (r15))?
A: The MIC was > 64 µg/mL.

Q: And the MIC (Escherichla coli)?
A: The MIC was > 64 µg/mL.

Q: And the MIC (Micrococcus luteus)?
A: Its MIC is 16 to 64 µg/mL (≈ 62.4 to 250 µM).

Q: What about the MIC (Staphylococcus aureus) of the same compound?
A: Its MIC is > 64 µg/mL.

Q: What about the MIC [4] of the same compound?
A: Its MIC is > 64 µg/mL.

Q: What about the MIC (Streptococcus pneumoniae) of the same compound?
A: Its MIC is > 64 µg/mL.

Q: And the “Cytotoxicity against cancer cell lines” value [1]?
A: Its value is “slightly less active than their cis counterparts”.

Q: `COc1ccc(C=Cc2cc(O)cc(O)c2)cc1` [Compound 14k, 3,5-dihydroxy-4′-methoxy-stilbene] was tested. Which “Pancreas-a BXPC-3 GI50” value (BXPC-3) did it give?
A: Its value is 14.1 µg/mL.

Q: And the “Breast MCF-7 GI50” value (MCF-7)?
A: The value was 12.7 µg/mL.

Q: And the “CNS SF-268 GI50” value (SF-268)?
A: Its value is 15.6 µg/mL.

Q: And the GI50 (NCI-H460; [8])?
A: Its GI50 is 6.4 µg/mL (≈ 26.4 µM).

Q: And the “Colon KM201.2 GI50” value (KM201.2; KM201.2)?
A: The value was 17.7 µg/mL.

Q: What about the “Prostate DU-145 GI50” value (DU-145) of the same compound?
A: The value was 10.6 µg/mL.

Q: What about the MIC (Candida albicans) of the same compound?
A: The MIC was > 64 µg/mL.

Q: And the MIC (Cryptococcus neoformans)?
A: The MIC was > 64 µg/mL.

Q: And the MIC (Enterobacter cloacae)?
A: The MIC was > 64 µg/mL.

Q: What about the MIC (Enterococcus faecalis; first line (r12)) of the same compound?
A: Its MIC is > 64 µg/mL.

Q: What about the MIC (Enterococcus faecalis; second line (r15)) of the same compound?
A: Its MIC is > 64 µg/mL.

Q: And the MIC (Escherichla coli)?
A: Its MIC is > 64 µg/mL.

Q: And the MIC (Micrococcus luteus)?
A: Its MIC is > 64 µg/mL.

Q: What about the MIC (Neisseria gonorrhoeae) of the same compound?
A: The MIC was 16 µg/mL (≈ 66 µM).

Q: What about the MIC (Staphylococcus aureus) of the same compound?
A: Its MIC is > 64 µg/mL.

Q: What about the MIC [4] of the same compound?
A: Its MIC is > 64 µg/mL.

Q: And the MIC (Streptococcus pneumoniae)?
A: Its MIC is > 64 µg/mL.

Q: And the “Cytotoxicity against cancer cell lines” value [1]?
A: The value was “comparable to that of resveratrol”.

Q: What does the source list for `COc1ccc(C=Cc2cc(O)cc(O)c2)cc1` [Compound 14l, 3,5-dihydroxy-4′-methoxy-stilbene]?
A: Pancreas-a BXPC-3 GI50 (BXPC-3): 6.3 µg/mL; Breast MCF-7 GI50 (MCF-7): 3.4 µg/mL; CNS SF-268 GI50 (SF-268): 3.1 µg/mL; Lung-NSC NCI-H460 GI50 (NCI-H460): 6.8 µg/mL; Colon KM201.2 GI50 (KM201.2; KM201.2): 3.8 µg/mL; Prostate DU-145 GI50 (DU-145): 2.7 µg/mL; Cytotoxicity against cancer cell lines, comparison in words [1]: slightly less active than their cis counterparts
